From patent US6310091A, “Fungicidal saponin, CAY-1, and isolation thereof from Capsium species fruit” (The United States of America as represented by the …, priority 2000, dated 2001)
Where “and” joins values, the source holds several entries; their conditions need not be identical. Equal values may be shown once. Read-outs that look alike come from different tables or passages of the source.

Legend:
Type in all cases: cell-based
Aspergillus fumigatus = test: Fungicidal bioassay on nongerminated and germinating conidia of A. fumigatus; conditions: for activity at 2 µM / activity at 3 µM / activity at 4 µM / activity at 5 µM / activity at 7.5 µM / activity at 10 µM / activity at 0.5 µM / activity at 1 µM / activity at 1.5 µM / activity at 2.5 µM: read-out: Percent of Mean Control
Procedure: 1. Filamentous fungi. Filamentous fungi used in bioassays included Aspergillus flavus, A. fumigatus, A. niger, A. parasiticus and Fusarium oxysporum. The fungicidal properties of CAY-1 for the nongerminated and germinating conidia of these fungi were determined separately as described by De Lucca et al. [Med. Mycol., 36:291-298 (1998)] and De Lucca et al. [Antimicrob. Agents Chemother. 43:371-373 (1999)]. […] Two separate experiments were conducted in each medium (n=8 per medium).
A suspension of the aforementioned fungi were prepared separately in the appropriate medium. Conidia (10^4 conidia/ml) were used immediately for the nongerminated conidial assays while conidia (10^5 conidia/ml) were incubated for 7.5 hours at 30° C. to obtain germinating conidia. Serial dilutions of CAY-1 were prepared in the appropriate medium (totaling 225 μl) to which was added 25 μl of the conidial suspensions. The control consisted of 225 μl of medium and 25 μl of the conidial suspension. After mixing, the samples were incubated for 30 min (30° C.). Samples were then spread on potato dextrose agar plates which were incubated at 30° C. for 24 hours. Colonies were then enumerated.
Statistical analyses. ANOVA analyses on ranks for nonparametric data were performed for the bioassays described in this example.

Pneumocystis carinii = test: Effect on Pneumocystis carinii viability (ATP-driven bioluminescent assay); conditions: for activity at 10 µM / activity at 2.5 µM / activity at 5 µM / activity at 20 µM / activity at 40 µM / activity at 80 µM: read-out: Percent of Control Mean; for activity at 2.5 µM: 3.2 μg/ml; for activity at 5 µM: 6.3 μg/ml; for activity at 20 µM: 25 μg/ml; for activity at 40 µM: 50 μg/ml; for activity at 80 µM: 100 μg/ml
Procedure: 3. Pneumocystis carinii. The effect of CAY-1 on Pneumocystis carinii was determined as described previously [Cushion et al., Antimicrob. Agents Chemother., 1997, 41:379-384, herein incorporated by reference]. This assay is based on an ATP-driven bioluminescent reaction and was used to determine the concentration of CAY-1 which decreased the P. carinii ATP pools.

[1] = system: Bacillus subtilis ATCC 6051; test: Bacterial lethality; conditions: 0.5-10 μM; 37° C., 24 hrs
Procedure: (§1) 5. Bacteria. CAY-1 lethality to Escherichia coli ATCC 8739, Enterobacter agglomerans ATCC 27996, Bacillus subtilis ATCC 6051 and Staphylococcus aureus ATCC 12600 was determined by methods described earlier (De Lucca et al., Mol. cell Biochem., 1995, 151:141-148). Briefly, 24 hr bacterial cultures were washed and resuspended in 0.1 M PBS, pH 7.2, amended with 0.15 mM MgCl2 and 0.5 mM CaCl2 and adjusted to 80% transmittance (approximately 10^8 cells/ml) at 590 nm. Bacterial suspensions were mixed with PBS and CAY-1 (final concentrations: 0, 0.5, 1, 2, 4, 8, 10 μM) in sterile 96-well plates (Nunc, Roskilde, Denmark) and incubated (37° C., 24 hrs). Bioassays were performed twice for each bacteria (n=8).

[2] = system: Enterobacter agglomerans ATCC 27996; test: Bacterial lethality; conditions: 0.5-10 μM; 37° C., 24 hrs
Procedure: as §1

[3] = system: Escherichia coli ATCC 8739; test: Bacterial lethality; conditions: 0.5-10 μM; 37° C., 24 hrs
Procedure: as §1

[4] = system: Staphylococcus aureus ATCC 12600; test: Bacterial lethality; conditions: 0.5-10 μM; 37° C., 24 hrs
Procedure: as §1

[5] = system: A549 lung carcinoma cells; test: Mammalian cytotoxicity, A549 lung carcinoma cells (ATP content); conditions: at concentrations effective against the fungi and yeast
Procedure: 2. A549 lung carcinoma cells. Toxicity of CAY-1 was tested by exposing the cells to CAY-1 for 24, 48, and 72 hrs. Antimycin A was used as a positive control. Viability was assessed by measurement of the ATP content in duplicate wells with luciferin-luciferase monitoring reagent [Cushion et al., Antimicrob. Agents Chemother., 1997, 41:379-384].

[6] = Aspergillus fumigatus, 0.5 h, read-out: LD95
[7] = Pneumocystis carinii, 24 h, Day 1
[8] = Pneumocystis carinii, 48 h, Day 2
[9] = Pneumocystis carinii, 72 h, Day 3

CC1CCC2(OC1)OC1CC3C4CCC5CC(OC6OC(CO)C(OC7OC(CO)C(O)C(OC8OC(CO)C(O)C(OC9OC(CO)C(O)C(O)C9O)C8O)C7OC7OC(CO)C(O)C(O)C7O)C(O)C6O)C(O)CC5(C)C4CCC3(C)C1C2C (stereo not shown) [CAY-1]
activity at 2 µM (Aspergillus fumigatus; Aspergillus fumigatus, 0.5 h, germinating, 1% PDB, 2.0 μM): 96.1%
activity at 3 µM (Aspergillus fumigatus; Aspergillus fumigatus, 0.5 h, germinating, 1% PDB, 3.0 μM): 49.9%
activity at 4 µM (Aspergillus fumigatus; Aspergillus fumigatus, 0.5 h, germinating, 1% PDB, 4.0 μM): 14.4%
activity at 5 µM (Aspergillus fumigatus; Aspergillus fumigatus, 0.5 h, germinating, 1% PDB, 5.0 μM): 6.1%
activity at 7.5 µM (Aspergillus fumigatus; Aspergillus fumigatus, 0.5 h, germinating, 1% PDB, 7.5 μM): 2.8%
activity at 10 µM (Aspergillus fumigatus; Aspergillus fumigatus, 0.5 h, germinating, 1% PDB, 10.0 μM): 0.2%
activity at 0.5 µM (Aspergillus fumigatus; Aspergillus fumigatus, 0.5 h, germinating, RPMI-1640, 0.5 μM): 92.4%
activity at 1 µM (Aspergillus fumigatus; Aspergillus fumigatus, 0.5 h, germinating, RPMI-1640, 1.0 μM): 105%
activity at 1.5 µM (Aspergillus fumigatus; Aspergillus fumigatus, 0.5 h, germinating, RPMI-1640, 1.5 μM): 117%
activity at 2 µM (Aspergillus fumigatus; Aspergillus fumigatus, 0.5 h, germinating, RPMI-1640, 2.0 μM): 118%
activity at 2.5 µM (Aspergillus fumigatus; Aspergillus fumigatus, 0.5 h, germinating, RPMI-1640, 2.5 μM): 114%
activity at 3 µM (Aspergillus fumigatus; Aspergillus fumigatus, 0.5 h, germinating, RPMI-1640, 3.0 μM): 40.7%
activity at 4 µM (Aspergillus fumigatus; Aspergillus fumigatus, 0.5 h, germinating, RPMI-1640, 4.0 μM): 5.1%
activity at 2 µM (Aspergillus fumigatus; Aspergillus fumigatus, 0.5 h, nongerminated, 1% PDB, 2.0 μM): 93.9%
activity at 3 µM (Aspergillus fumigatus; Aspergillus fumigatus, 0.5 h, nongerminated, 1% PDB, 3.0 μM): 80.4%
activity at 4 µM (Aspergillus fumigatus; Aspergillus fumigatus, 0.5 h, nongerminated, 1% PDB, 4.0 μM): 88.5%
activity at 5 µM (Aspergillus fumigatus; Aspergillus fumigatus, 0.5 h, nongerminated, 1% PDB, 5.0 μM): 86.7%
activity at 7.5 µM (Aspergillus fumigatus; Aspergillus fumigatus, 0.5 h, nongerminated, 1% PDB, 7.5 μM): 96.6%
activity at 10 µM (Aspergillus fumigatus; Aspergillus fumigatus, 0.5 h, nongerminated, 1% PDB, 10.0 μM): 101%
activity at 0.5 µM (Aspergillus fumigatus; Aspergillus fumigatus, 0.5 h, nongerminated, RPMI-1640, 0.5 μM): 117%
activity at 1 µM (Aspergillus fumigatus; Aspergillus fumigatus, 0.5 h, nongerminated, RPMI-1640, 1.0 μM): 132%
activity at 1.5 µM (Aspergillus fumigatus; Aspergillus fumigatus, 0.5 h, nongerminated, RPMI-1640, 1.5 μM): 97.4%
activity at 2 µM (Aspergillus fumigatus; Aspergillus fumigatus, 0.5 h, nongerminated, RPMI-1640, 2.0 μM): 109%
activity at 2.5 µM (Aspergillus fumigatus; Aspergillus fumigatus, 0.5 h, nongerminated, RPMI-1640, 2.5 μM): 96.5%
activity at 3 µM (Aspergillus fumigatus; Aspergillus fumigatus, 0.5 h, nongerminated, RPMI-1640, 3.0 μM): 103%
LD95 (concentration killing 95% of conidia) (Aspergillus fumigatus; [6]): 4 µM
LD95 (concentration lethal to 95% of conidia) (Aspergillus fumigatus; [6]): 5 µg/mL
minimal effective concentration (Aspergillus fumigatus; Aspergillus fumigatus, 0.5 h, read-out: concentration achieving significant lethality): 3 µM and 3.7 µg/mL
minimal effective concentration (Aspergillus fumigatus; Aspergillus fumigatus, 0.5 h, read-out: concentration required for statistically significant viability reduction): 12.4 µg/mL
minimal effective concentration (Aspergillus fumigatus; Aspergillus fumigatus, 0.5 h, germinating conidia, RPMI-1640, p=0.0002, read-out: concentration required for statistically significant viability reduction): 10 µM
Mean No. of Colonies (Aspergillus fumigatus; germinating, 1% PDB, 2.0 μM): 44.1
Mean No. of Colonies (Aspergillus fumigatus; germinating, 1% PDB, 3.0 μM): 22.9
Mean No. of Colonies (Aspergillus fumigatus; germinating, 1% PDB, 4.0 μM): 6.6
Mean No. of Colonies (Aspergillus fumigatus; germinating, 1% PDB, 5.0 μM): 2.8
Mean No. of Colonies (Aspergillus fumigatus; germinating, 1% PDB, 7.5 μM): 1.3
Mean No. of Colonies (Aspergillus fumigatus; germinating, 1% PDB, 10.0 μM): 0.1
Mean No. of Colonies (Aspergillus fumigatus; germinating, RPMI-1640, 0.5 μM): 10.9
Mean No. of Colonies (Aspergillus fumigatus; germinating, RPMI-1640, 1.0 μM): 12.4
Mean No. of Colonies (Aspergillus fumigatus; germinating, RPMI-1640, 1.5 μM): 13.8
Mean No. of Colonies (Aspergillus fumigatus; germinating, RPMI-1640, 2.0 μM): 13.9
Mean No. of Colonies (Aspergillus fumigatus; germinating, RPMI-1640, 2.5 μM): 13.5
Mean No. of Colonies (Aspergillus fumigatus; germinating, RPMI-1640, 3.0 μM): 4.8
Mean No. of Colonies (Aspergillus fumigatus; germinating, RPMI-1640, 4.0 μM): 0.6
viability of nongerminated conidia (Aspergillus fumigatus; nongerminated conidia, either test medium): not affected
Mean No. of Colonies (Aspergillus fumigatus; nongerminated, 1% PDB, 2.0 μM): 57.4
Mean No. of Colonies (Aspergillus fumigatus; nongerminated, 1% PDB, 3.0 μM): 49.1
Mean No. of Colonies (Aspergillus fumigatus; nongerminated, 1% PDB, 4.0 μM): 54.1
Mean No. of Colonies (Aspergillus fumigatus; nongerminated, 1% PDB, 5.0 μM): 53.0
Mean No. of Colonies (Aspergillus fumigatus; nongerminated, 1% PDB, 7.5 μM): 59.0
Mean No. of Colonies (Aspergillus fumigatus; nongerminated, 1% PDB, 10.0 μM): 61.8
Mean No. of Colonies (Aspergillus fumigatus; nongerminated, RPMI-1640, 0.5 μM): 27.0
Mean No. of Colonies (Aspergillus fumigatus; nongerminated, RPMI-1640, 1.0 μM): 30.6
Mean No. of Colonies (Aspergillus fumigatus; nongerminated, RPMI-1640, 1.5 μM): 22.5
Mean No. of Colonies (Aspergillus fumigatus; nongerminated, RPMI-1640, 2.0 μM): 25.1
Mean No. of Colonies (Aspergillus fumigatus; nongerminated, RPMI-1640, 2.5 μM): 22.3
Mean No. of Colonies (Aspergillus fumigatus; nongerminated, RPMI-1640, 3.0 μM): 23.8
effectiveness compared with pentamidine (Pneumocystis carinii; 25 and 50 μg/ml (20.2 and 40.3 μM) vs pentamidine 10 μg/ml, 29 μM): as, or more effective, than pentamidine
IC50 (Pneumocystis carinii; Pneumocystis carinii): 11.8 µg/mL and 9.5 µM
activity at 10 µM (Pneumocystis carinii; Pneumocystis carinii, 24 h): 43.1%
activity at 2.5 µM (Pneumocystis carinii; [7]): 94.7%
activity at 5 µM (Pneumocystis carinii; [7]): 70.1%
activity at 20 µM (Pneumocystis carinii; [7]): 18%
activity at 40 µM (Pneumocystis carinii; [7]): 10%
activity at 80 µM (Pneumocystis carinii; [7]): 3.1%
killing at 10 µM (Pneumocystis carinii; Pneumocystis carinii, 48 h, read-out: P. carinii killed): ≥ 34.6%
activity at 10 µM (Pneumocystis carinii; Pneumocystis carinii, 48 h): 11.8%
activity at 2.5 µM (Pneumocystis carinii; [8]): 98.2%
activity at 5 µM (Pneumocystis carinii; [8]): 56.9%
activity at 20 µM (Pneumocystis carinii; [8]): 5.5%
activity at 40 µM (Pneumocystis carinii; [8]): 2.2%
activity at 80 µM (Pneumocystis carinii; [8]): 0.9%
killing at 40.3 µM (Pneumocystis carinii; Pneumocystis carinii, 72 h, read-out: P. carinii cells killed): 93%
activity at 10 µM (Pneumocystis carinii; Pneumocystis carinii, 72 h): 12.1%
activity at 2.5 µM (Pneumocystis carinii; [9]): 99.8%
activity at 5 µM (Pneumocystis carinii; [9]): 46.6%
activity at 20 µM (Pneumocystis carinii; [9]): 3.3%
activity at 40 µM (Pneumocystis carinii; [9]): 1%
activity at 80 µM (Pneumocystis carinii; [9]): 0.3%
minimal effective concentration (Pneumocystis carinii; Pneumocystis carinii, read-out: concentration at which lethality begins): 5 µM
minimal effective concentration (Pneumocystis carinii; Pneumocystis carinii, read-out: lowest effective level in vitro): ~5 µM
lethality to bacteria [1]: not effective
lethality to bacteria [2]: not effective
lethality to bacteria [3]: not effective
lethality to bacteria [4]: not effective
lethality to mammalian cells [5]: not lethal
